Assay results from patent US6617342B1, “Hypoglycemic sulfonyl pyrazolones and pyrazolines” (Eli Lilly and Company, priority 1999, dated 2003).

Test system: obese-diabetic viable yellow (AvY) mice
Assay: Demonstration of hypoglycemic efficacy: blood glucose after 14 days of compound admixed in diet
Type: in vivo
Conditions: blood glucose at day 14 as percent of initial (day 0) value, male AvY mice
Description: Male obese-diabetic viable yellow (AvY) mice were divided into two groups of 6 each. One group was fed repelletized purina 5008 Chow and the second group was fed repelletized Purina 5008 Chow, admixed with varying doses of the candidate compound. Blood samples were taken before the experiment was initiated and 7 and 14 days after initiation. Body weight and food consumption were monitored. The blood glucose level after 7 or 14 days of treatment was measured and recorded as a percent of the initial value, compared to the untreated control (first) group. The results are presented in the table 1 below; and include the dose of the candidate compound as a weight percent of the amount incorporated into the diet. Also in the table is a representative value for a positive control (a known hypoglycemic agent as disclosed by T. Sohda, K. Mizuno, Y. Momose, H. Ikeda, T. Fujita, and K. Meguro, J. Med. Chem., 1992, 35, 2617) administered in the same way as a candidate compound of the present invention.
BG means blood glucose level; BG0 means blood glucose level at day zero and BG14 means blood glucose level at day 14 accordingly. Takeda “Compound 17” is disclosed by T. Sohda, K. Mizuno, Y. Momose, H. Ikeda, T. Fujita, and K. Meguro, J. Med. Chem., 1992, 35, 2617.

[1] = dose .03 weight percent in diet (Purina 5008 Chow)

Row | Compound | % BG14 (BGO = 100) [1] | also measured
1 | O=c1ccn(S(=O)(=O)c2ccc3ccccc3c2)[nH]1 [Example 4, 2-Naphthylsulfonyl-pyrazolin-3-one] | – | % BG14 (BGO = 100) (dose .1 weight percent in diet (Purina 5008 Chow)): 94%
2 | O=c1[nH][nH]cc1S(=O)(=O)c1ccc(OCCc2coc(-c3ccccc3)n2)cc1 [Example 1, 4-(4-[2-(2-Phenyl-4-oxazolyl)ethoxy]phenylsulfonyl)-1H,2H-prazolin-3-one] | 32% | –
3 | 3-(4-(2-Phenyl-4-oxazolyl)ethoxy)phenyl-4-methylsulfonyl-1H-1,2-pyrazoline [Example 3] | – | % BG14 (BGO = 100) (dose .01 weight percent in diet (Purina 5008 Chow)): 72%
4 | O=c1[nH][nH]cc1S(=O)(=O)Cc1ccc(OCCc2coc(-c3ccccc3)n2)cc1 [Example 2, 4-(4-[2-(2-Phenyl-4-oxazolyl)ethoxy]phenylmethylsulfonyl)-1H,2H-prazolin-3-one] | 81% | –
